Assay results taken from PMC8800111 (The Journal of Biological Chemistry, 2021).

Assays:
Type in all cases: cell-based
[1] = biological target: proteins of U3A human fibrosarcoma cells (4462 proteins detected) (Homo sapiens, UniProt Q76FK4); settings: protein NOL8; soluble abundance after heat, U3A cells
[2] = biological target: proteins of U3A human fibrosarcoma cells (4462 proteins detected) (Homo sapiens, UniProt Q9Y5J6); settings: protein TIMM10B; U3A cells
[3] = biological target: proteins of U3A human fibrosarcoma cells (4462 proteins detected) (Homo sapiens, UniProt Q6KC79); settings: protein NIPBL; U3A cells
[4] = biological target: proteins of U3A human fibrosarcoma cells (4462 proteins detected) (Homo sapiens, UniProt Q13217); settings: protein DNAJC3; soluble abundance after heat, U3A cells
proteins of U3A human fibrosarcoma cells (4462 proteins detected) (Homo sapiens, UniProt Q13217), sequence (Q13217 32-504): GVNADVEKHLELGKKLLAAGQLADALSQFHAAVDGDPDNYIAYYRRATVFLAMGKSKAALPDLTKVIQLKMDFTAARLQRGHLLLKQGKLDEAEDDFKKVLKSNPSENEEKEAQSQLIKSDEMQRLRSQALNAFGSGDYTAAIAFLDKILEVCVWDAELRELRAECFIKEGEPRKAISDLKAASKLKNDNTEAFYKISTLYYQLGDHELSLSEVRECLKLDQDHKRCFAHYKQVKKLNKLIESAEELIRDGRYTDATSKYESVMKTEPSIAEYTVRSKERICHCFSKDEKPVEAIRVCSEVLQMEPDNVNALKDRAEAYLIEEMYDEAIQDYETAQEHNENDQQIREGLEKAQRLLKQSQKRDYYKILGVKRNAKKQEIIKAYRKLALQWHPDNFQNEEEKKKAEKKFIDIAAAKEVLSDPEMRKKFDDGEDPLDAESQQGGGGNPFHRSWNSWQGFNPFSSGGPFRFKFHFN

[5] = biological target: proteins of U3A human fibrosarcoma cells (4462 proteins detected) (Homo sapiens, UniProt Q01826); settings: protein SATB1; U3A cells
[6] = biological target: proteins of U3A human fibrosarcoma cells (4462 proteins detected) (Homo sapiens, UniProt Q9Y6G5); settings: protein COMMD10; U3A cells
proteins of U3A human fibrosarcoma cells (4462 proteins detected) (Homo sapiens, UniProt Q9Y6G5), sequence (Q9Y6G5 whole entry): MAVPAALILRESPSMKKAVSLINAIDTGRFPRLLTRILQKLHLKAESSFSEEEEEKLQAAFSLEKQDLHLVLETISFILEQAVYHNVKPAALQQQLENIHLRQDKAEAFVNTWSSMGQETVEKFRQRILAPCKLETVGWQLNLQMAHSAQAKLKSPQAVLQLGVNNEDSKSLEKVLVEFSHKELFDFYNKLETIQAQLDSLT

[7] = biological target: proteins of U3A human fibrosarcoma cells (4462 proteins detected) (Homo sapiens, UniProt Q9HD33); settings: protein MRPL47; U3A cells
[8] = biological target: proteins of U3A human fibrosarcoma cells (4462 proteins detected) (Homo sapiens, UniProt Q9Y266); settings: protein NUDC; U3A cells
proteins of U3A human fibrosarcoma cells (4462 proteins detected) (Homo sapiens, UniProt Q9Y266), sequence (Q9Y266 whole entry): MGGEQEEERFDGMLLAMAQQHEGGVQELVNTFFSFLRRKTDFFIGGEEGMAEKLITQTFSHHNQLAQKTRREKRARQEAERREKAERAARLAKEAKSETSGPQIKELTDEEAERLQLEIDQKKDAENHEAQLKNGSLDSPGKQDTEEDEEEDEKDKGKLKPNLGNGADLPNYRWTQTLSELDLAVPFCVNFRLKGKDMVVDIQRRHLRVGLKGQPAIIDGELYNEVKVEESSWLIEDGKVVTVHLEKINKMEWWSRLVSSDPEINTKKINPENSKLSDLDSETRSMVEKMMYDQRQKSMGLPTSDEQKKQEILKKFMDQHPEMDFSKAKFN

[9] = biological target: proteins of U3A human fibrosarcoma cells (4462 proteins detected) (Homo sapiens, UniProt P52747); settings: protein ZNF143; U3A, 10 μM, 2 h
proteins of U3A human fibrosarcoma cells (4462 proteins detected) (Homo sapiens, UniProt P52747), sequence (P52747 whole entry): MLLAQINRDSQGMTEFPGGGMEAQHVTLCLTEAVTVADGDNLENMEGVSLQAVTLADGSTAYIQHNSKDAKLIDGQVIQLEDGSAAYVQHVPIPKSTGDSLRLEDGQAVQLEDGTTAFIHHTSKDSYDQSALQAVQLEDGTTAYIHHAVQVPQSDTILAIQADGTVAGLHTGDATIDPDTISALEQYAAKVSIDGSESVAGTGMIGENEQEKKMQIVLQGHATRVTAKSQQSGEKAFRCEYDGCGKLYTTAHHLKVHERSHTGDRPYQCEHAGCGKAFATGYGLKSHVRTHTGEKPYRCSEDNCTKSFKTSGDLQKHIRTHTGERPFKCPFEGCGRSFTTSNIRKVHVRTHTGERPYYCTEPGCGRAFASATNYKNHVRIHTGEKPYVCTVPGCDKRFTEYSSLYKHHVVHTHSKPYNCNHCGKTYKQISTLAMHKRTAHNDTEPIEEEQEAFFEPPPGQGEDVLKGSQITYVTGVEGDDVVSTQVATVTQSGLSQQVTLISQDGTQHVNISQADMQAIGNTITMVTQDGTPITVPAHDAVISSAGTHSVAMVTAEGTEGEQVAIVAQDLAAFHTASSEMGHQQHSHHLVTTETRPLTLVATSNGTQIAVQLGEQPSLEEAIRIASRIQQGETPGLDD

[10] = biological target: proteins of U3A human fibrosarcoma cells (4462 proteins detected) (Homo sapiens, UniProt Q01518); settings: protein CAP1; U3A cells
[11] = biological target: proteins of U3A human fibrosarcoma cells (4462 proteins detected) (Homo sapiens, UniProt P49916); settings: protein LIG3; U3A cells
[12] = biological target: proteins of U3A human fibrosarcoma cells (4462 proteins detected) (Homo sapiens, UniProt Q6SJ93); settings: protein FAM111B; U3A cells
[13] = biological target: proteins of U3A human fibrosarcoma cells (4462 proteins detected) (Homo sapiens, UniProt Q4KWH8); settings: protein PLCH1; U3A, 10 μM, 2 h
proteins of U3A human fibrosarcoma cells (4462 proteins detected) (Homo sapiens, UniProt Q4KWH8), sequence (Q4KWH8 whole entry): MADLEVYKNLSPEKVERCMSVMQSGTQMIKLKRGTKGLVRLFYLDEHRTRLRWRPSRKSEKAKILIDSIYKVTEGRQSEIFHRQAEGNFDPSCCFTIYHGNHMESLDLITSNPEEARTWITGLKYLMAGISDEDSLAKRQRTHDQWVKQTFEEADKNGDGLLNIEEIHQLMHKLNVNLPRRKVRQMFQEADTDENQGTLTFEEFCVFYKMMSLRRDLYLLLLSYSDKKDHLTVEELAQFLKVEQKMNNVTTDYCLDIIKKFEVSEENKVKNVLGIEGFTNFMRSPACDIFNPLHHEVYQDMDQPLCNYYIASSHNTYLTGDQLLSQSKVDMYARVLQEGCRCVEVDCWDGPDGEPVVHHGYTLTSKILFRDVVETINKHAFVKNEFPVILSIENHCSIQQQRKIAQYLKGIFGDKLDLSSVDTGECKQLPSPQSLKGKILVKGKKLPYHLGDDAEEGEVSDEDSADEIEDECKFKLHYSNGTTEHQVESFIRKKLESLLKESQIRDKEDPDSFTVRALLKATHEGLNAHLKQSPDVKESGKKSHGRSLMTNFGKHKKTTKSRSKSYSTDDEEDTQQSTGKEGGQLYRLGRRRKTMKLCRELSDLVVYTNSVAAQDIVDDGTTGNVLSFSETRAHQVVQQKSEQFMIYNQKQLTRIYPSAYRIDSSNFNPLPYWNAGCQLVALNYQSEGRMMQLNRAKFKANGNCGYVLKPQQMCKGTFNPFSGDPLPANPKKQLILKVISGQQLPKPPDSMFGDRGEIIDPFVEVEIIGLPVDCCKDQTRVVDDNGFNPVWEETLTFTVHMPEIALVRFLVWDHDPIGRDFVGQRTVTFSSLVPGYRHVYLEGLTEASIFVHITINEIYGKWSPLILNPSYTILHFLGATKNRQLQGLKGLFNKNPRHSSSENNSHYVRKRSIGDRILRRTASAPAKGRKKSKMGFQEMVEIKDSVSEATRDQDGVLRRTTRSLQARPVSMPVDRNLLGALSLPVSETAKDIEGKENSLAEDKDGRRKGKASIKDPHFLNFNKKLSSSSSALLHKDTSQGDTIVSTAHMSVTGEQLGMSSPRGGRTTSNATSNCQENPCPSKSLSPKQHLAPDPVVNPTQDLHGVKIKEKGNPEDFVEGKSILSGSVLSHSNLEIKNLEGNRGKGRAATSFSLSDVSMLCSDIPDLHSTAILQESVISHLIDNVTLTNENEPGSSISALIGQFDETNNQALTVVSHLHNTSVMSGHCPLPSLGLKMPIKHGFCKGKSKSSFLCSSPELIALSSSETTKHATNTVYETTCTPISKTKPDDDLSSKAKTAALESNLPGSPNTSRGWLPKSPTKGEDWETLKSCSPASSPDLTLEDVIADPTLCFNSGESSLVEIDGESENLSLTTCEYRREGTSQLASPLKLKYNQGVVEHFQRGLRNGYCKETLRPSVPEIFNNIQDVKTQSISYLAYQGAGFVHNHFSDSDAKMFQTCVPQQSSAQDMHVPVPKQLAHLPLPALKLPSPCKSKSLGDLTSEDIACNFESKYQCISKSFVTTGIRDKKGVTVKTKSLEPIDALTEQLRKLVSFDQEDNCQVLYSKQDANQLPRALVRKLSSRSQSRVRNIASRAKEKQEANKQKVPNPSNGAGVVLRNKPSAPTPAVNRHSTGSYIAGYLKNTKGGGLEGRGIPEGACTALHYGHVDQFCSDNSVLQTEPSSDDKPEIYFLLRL

[14] = biological target: proteins of U3A human fibrosarcoma cells (4462 proteins detected) (Homo sapiens, UniProt P28799); settings: protein GRN; U3A cells
[15] = biological target: proteins of U3A human fibrosarcoma cells (4462 proteins detected) (Homo sapiens, UniProt Q96DM3); settings: protein C18orf8; U3A cells
proteins of U3A human fibrosarcoma cells (4462 proteins detected) (Homo sapiens, UniProt Q96DM3), sequence (Q96DM3 whole entry): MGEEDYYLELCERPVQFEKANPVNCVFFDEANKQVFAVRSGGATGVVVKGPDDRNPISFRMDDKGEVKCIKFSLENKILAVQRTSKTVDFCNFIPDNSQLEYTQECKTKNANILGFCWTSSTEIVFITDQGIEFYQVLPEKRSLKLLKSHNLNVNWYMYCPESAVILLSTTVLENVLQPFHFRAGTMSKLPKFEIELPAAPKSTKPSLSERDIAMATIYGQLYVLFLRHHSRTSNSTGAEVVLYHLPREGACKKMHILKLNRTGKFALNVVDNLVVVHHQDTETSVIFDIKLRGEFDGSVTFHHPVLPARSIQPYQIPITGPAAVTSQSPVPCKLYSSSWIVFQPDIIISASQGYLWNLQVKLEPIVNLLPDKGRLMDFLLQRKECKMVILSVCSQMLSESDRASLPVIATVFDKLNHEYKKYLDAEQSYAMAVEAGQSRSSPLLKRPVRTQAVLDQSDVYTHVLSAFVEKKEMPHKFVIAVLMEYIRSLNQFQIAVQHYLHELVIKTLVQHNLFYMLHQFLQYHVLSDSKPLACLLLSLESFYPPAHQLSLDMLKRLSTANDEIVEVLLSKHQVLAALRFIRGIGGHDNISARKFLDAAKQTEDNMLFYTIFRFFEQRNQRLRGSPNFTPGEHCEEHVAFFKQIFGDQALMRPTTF

[16] = biological target: proteins of U3A human fibrosarcoma cells (4462 proteins detected) (Homo sapiens, UniProt P36542); settings: protein ATP5C1; U3A cells
[17] = biological target: proteins of U3A human fibrosarcoma cells (4462 proteins detected) (Homo sapiens, UniProt O95453); settings: protein PARN; U3A cells
[18] = biological target: proteins of U3A human fibrosarcoma cells (4462 proteins detected) (Homo sapiens, UniProt P40123); settings: protein CAP2; U3A cells
proteins of U3A human fibrosarcoma cells (4462 proteins detected) (Homo sapiens, UniProt P40123), sequence (P40123 whole entry): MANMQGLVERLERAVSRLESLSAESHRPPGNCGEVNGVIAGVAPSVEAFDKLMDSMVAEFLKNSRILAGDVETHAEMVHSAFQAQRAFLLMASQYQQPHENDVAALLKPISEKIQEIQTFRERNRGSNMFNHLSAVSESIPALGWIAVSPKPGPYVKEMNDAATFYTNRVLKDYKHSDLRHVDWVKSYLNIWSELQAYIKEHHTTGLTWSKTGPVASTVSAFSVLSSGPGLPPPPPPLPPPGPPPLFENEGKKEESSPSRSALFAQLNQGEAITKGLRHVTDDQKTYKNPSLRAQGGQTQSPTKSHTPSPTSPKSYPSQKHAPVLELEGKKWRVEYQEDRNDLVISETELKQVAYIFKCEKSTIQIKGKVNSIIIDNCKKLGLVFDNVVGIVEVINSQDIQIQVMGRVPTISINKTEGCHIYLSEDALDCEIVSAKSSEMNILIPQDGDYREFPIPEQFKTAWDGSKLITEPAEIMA

[19] = biological target: proteins of U3A human fibrosarcoma cells (4462 proteins detected) (Homo sapiens, UniProt P05023); settings: protein ATP1A1; U3A, 10 μM, 2 h
[20] = biological target: proteins of U3A human fibrosarcoma cells (4462 proteins detected) (Homo sapiens, UniProt O43427); settings: protein FIBP; soluble abundance after heat, U3A cells
proteins of U3A human fibrosarcoma cells (4462 proteins detected) (Homo sapiens, UniProt O43427), sequence (O43427 whole entry): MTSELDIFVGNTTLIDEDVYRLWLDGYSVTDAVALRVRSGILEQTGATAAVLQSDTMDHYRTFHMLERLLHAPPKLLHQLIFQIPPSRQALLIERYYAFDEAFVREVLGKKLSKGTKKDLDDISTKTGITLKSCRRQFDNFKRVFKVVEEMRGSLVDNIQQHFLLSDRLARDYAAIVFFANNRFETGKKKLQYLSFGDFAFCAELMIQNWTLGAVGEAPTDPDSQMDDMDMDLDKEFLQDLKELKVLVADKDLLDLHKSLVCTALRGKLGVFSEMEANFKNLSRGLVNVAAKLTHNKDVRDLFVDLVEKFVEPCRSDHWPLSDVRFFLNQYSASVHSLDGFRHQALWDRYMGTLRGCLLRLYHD

[21] = biological target: proteins of U3A human fibrosarcoma cells (4462 proteins detected) (Homo sapiens, UniProt Q9H1D9); settings: protein POLR3F; U3A cells
[22] = biological target: proteins of U3A human fibrosarcoma cells (4462 proteins detected) (Homo sapiens, UniProt Q8TA86); settings: protein RP9, U3A cells
[23] = biological target: proteins of U3A human fibrosarcoma cells (4462 proteins detected) (Homo sapiens, UniProt P78371); settings: protein CCT2; U3A cells
[24] = biological target: proteins of U3A human fibrosarcoma cells (4462 proteins detected) (Homo sapiens, UniProt Q8NFH4); settings: protein NUP37, U3A cells
[25] = biological target: proteins of U3A human fibrosarcoma cells (4462 proteins detected) (Homo sapiens, UniProt P01040); settings: protein CSTA, U3A cells
proteins of U3A human fibrosarcoma cells (4462 proteins detected) (Homo sapiens, UniProt P01040), sequence (P01040 whole entry): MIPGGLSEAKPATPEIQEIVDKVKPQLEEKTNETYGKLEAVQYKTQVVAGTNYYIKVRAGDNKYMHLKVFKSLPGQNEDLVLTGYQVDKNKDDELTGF

[26] = biological target: proteins of U3A human fibrosarcoma cells (4462 proteins detected) (Homo sapiens, UniProt Q8IUD2); settings: protein ERC1, U3A cells
[27] = biological target: proteins of U3A human fibrosarcoma cells (4462 proteins detected) (Homo sapiens, UniProt Q05397); settings: protein PTK2; U3A cells
[28] = biological target: proteins of U3A human fibrosarcoma cells (4462 proteins detected) (Homo sapiens, UniProt Q9BYN8); settings: protein MRPS26; soluble abundance after heat, U3A cells
[29] = biological target: proteins of U3A human fibrosarcoma cells (4462 proteins detected) (Homo sapiens, UniProt Q9NRY5); settings: protein FAM114A2; U3A cells
[30] = biological target: proteins of U3A human fibrosarcoma cells (4462 proteins detected) (Homo sapiens, UniProt Q9NYJ1); settings: protein COA4; U3A cells

In the case of `CCc1nc(N)nc(N)c1-c1ccc(Cl)cc1` [pyrimethamine], the “Log2 (PYR/DMSO)” value [1] is reported as 0.13, the “Log2 (PYR/DMSO)” value [2] is reported as 0.18 and the “Log2 (PYR/DMSO)” value [3] is reported as 0.23. For the same compound, the “Log2 (PYR/DMSO)” value [4] was 0.14, the “Log2 (PYR/DMSO)” value [5] was 0.21 and the “Log2 (PYR/DMSO)” value [6] was 0.22. For the same compound, the “Log2 (PYR/DMSO)” value [7] was 0.17, the “Log2 (PYR/DMSO)” value [8] was 0.16 and the “Log2 (PYR/DMSO), ZNF143” value [9] was -0.16. The “Log2 (PYR/DMSO)” value [10] was 0.20, the “Log2 (PYR/DMSO)” value [11] was 0.16 and the “Log2 (PYR/DMSO)” value [12] was 0.20. For the same compound, the “Log2 (PYR/DMSO), PLCH1” value [13] was 0.32, the “Log2 (PYR/DMSO)” value [14] was 0.21 and the “Log2 (PYR/DMSO)” value [15] was 0.17. The “Log2 (PYR/DMSO)” value [16] was 0.21, the “Log2 (PYR/DMSO)” value [17] was 0.21 and the “Log2 (PYR/DMSO)” value [18] was 0.21. The “Log2 (PYR/DMSO), ATP1A1” value [19] was 0.37, the “Log2 (PYR/DMSO)” value [20] was 0.14 and the “Log2 (PYR/DMSO)” value [21] was 0.17. The “Log2 (PYR/DMSO)” value [22] was -0.05, the “Log2 (PYR/DMSO)” value [23] was 0.17 and the “Log2 (PYR/DMSO)” value [24] was -0.04. For the same compound, the “Log2 (PYR/DMSO)” value [25] was -0.04, the “Log2 (PYR/DMSO)” value [26] was -0.04 and the “Log2 (PYR/DMSO)” value [27] was 0.16. The “Log2 (PYR/DMSO)” value [28] was 0.14, the “Log2 (PYR/DMSO)” value [29] was 0.17 and the “Log2 (PYR/DMSO)” value [30] was 0.18.
